“And” between values parts separate entries of the source, which are not always exact repeats. Equal entries are not always repeated.
System: WT C57Bl/6J mice
Test: Urine amino acid excretion in WT C57Bl/6J mice after JN-170
Assay type: in vivo, mouse
Design: urine Gln excretion / urine Phe excretion: unit not given here
Details: for 12 hour urine Arg (Fig 2b) / 12 hour urine Gln (Fig 2b) / 12 hour urine Glu (Fig 2b) / 12 hour urine His (Fig 2b) / 12 hour urine Lys (Fig 2b) / 12 hour urine Met (Fig 2b) / 12 hour urine Phe (Fig 2b) / 12 hour urine Pro (Fig 2b) / 12 hour urine Ser (Fig 2b) / 12 hour urine Thr (Fig 2b) / 12 hour urine Trp (Fig 2b) / 12 hour urine Tyr (Fig 2b): individual mice
Procedure: Male homozygous BTBR-Pah<enu2>/J (Pah^enu2) aged 10–13 weeks were purchased from Jackson Laboratory (no. 002232). Immediately before dosing, each animal’s bladder was manually emptied and a plasma sample was drawn. Animals were dosed by oral gavage with vehicle (10% DMSO, 20% 2-hydroxypropyl-β-cyclodextrin [Sigma-Aldrich]) followed by a 1-week washout prior to dosing with JN-170 at doses ranging from 50 to 250 mg/kg. Following dosing with vehicle or JN-170, animals were individually placed in metabolic cages to collect urine samples. After collection of each urine sample, cages were rinsed with ultra-pure water to recover residual analytes. Blood samples were collected predose as well as 1, 3, 8, 12, and 24 hours after dosing with vehicle or JN-170 into tubes with EDTA as a […], and plasma was separated by centrifuging samples at 2,200g for 5 minutes at 4°C. Throughout the study, mice had access to food and water ad libitum. Plasma and urine samples were stored at –80°C until processing.Ten-week-old male WT C57Bl/6J animals (Si Bei Fu Laboratory Animal Technology Co. Ltd.) were dosed either with vehicle or 50–250 mg/kg JN-170 by oral gavage and blood and urine samples were collected as described. All animals had unrestricted access to food and water during the study; C57Bl/6J were kept on rodent maintenance diet from Beijing Keao Xieli, Pah^enu2 mice were kept on Teklad diet no. T.2018.
Urine and cage-wash samples were vortexed and centrifuged at 3,700g for 5 minutes to remove any solid precipitate. Neat samples and samples diluted 1:10 in water were further diluted 1:10 in crash solution (75% acetonitrile 25% methanol, 0.1% formic acid, 5 mM heavy labeled amino acids) to precipitate proteins. Samples were centrifuged at 3,700g for 5 minutes before the supernatant was transferred into an injection plate. Urine amino acid analysis was carried out using a quadrupole time of flight (QToF) LC-mass spectrometry (QToF-LC-MS) bioanalytical method. A standard curve of 1 mM down to 0.06 μM was used as the calibration curve to which samples were quantified. The amino acid concentrations were calculated with a 1/×2 linear regression over a concentration range of 60 nM to 1,000 μM of the individual amino acids. An Agilent QToF 6545 was operated in an accurate mass full scan range of 100–1,700 m/z positive ions formed by electrospray ionization with a normal phase HILIC chromatographic method. An Agilent InfinityLab Poroshell 120 HILIC-Z, 2.1 × 150 mm, 2.7 μm was used as the analytical column with 10 mM Ammonium Acetate in 0.1% FA as mobile phase A and 10 mM Ammonium Acetate in 95% ACN, 0.1% FA as mobile phase B. At a flow rate of 0.25 mL/min, the binary gradient increased from an initial 100% phase B to 90% phase B over 3 minutes. After 1.5 minutes, the gradient ramped to 80% mobile phase B. At 5.6 minutes into the gradient, mobile phase B ramped from 60% to 0% and held for 2 minutes before returning to initial conditions at 7.5 minutes. The gradient was stopped at 10 minutes.Total urine amino acid amounts were calculated by multiplying urine amino acid concentrations by the urine volume and adding the amount of amino acid recovered in the cage wash, which was calculated by multiplying the cage wash amino acid concentration by the cage wash volume.

[1] = Fig S3b, WT mice, individual animals
[2] = WT mice, 0–3 hours after 200 mg/kg

N#Cc1ccc(-c2noc([C@]3(C(F)(F)F)CCN(C(=O)NCCC4(N)CC4)C3)n2)cc1 [JN-170]
12 hour urine Arg (Fig 2b) (50 mg/kg single oral dose): 42.35 µg and 21.61 µg and 86.86 µg and 32.17 µg and 60.46 µg and 54.76 µg | 12 hour urine Gln (Fig 2b) (50 mg/kg single oral dose): 1216.88 µg and 424.1 µg and 3207.04 µg and 1668.39 µg and 2208.59 µg and 1050.68 µg | 12 hour urine Glu (Fig 2b) (50 mg/kg single oral dose): 29.83 µg and 17.33 µg and 39.89 µg and 30.41 µg and 48.52 µg and 28.91 µg | 12 hour urine His (Fig 2b) (50 mg/kg single oral dose): 99.8 µg and 39.7 µg and 232.38 µg and 133.78 µg and 173.51 µg and 97.64 µg | 12 hour urine Lys (Fig 2b) (50 mg/kg single oral dose): 34.24 µg and 15.87 µg and 87.69 µg and 25.64 µg and 70.14 µg and 37.6 µg | 12 hour urine Met (Fig 2b) (50 mg/kg single oral dose): 22.43 µg and 9.44 µg and 86.47 µg and 39.61 µg and 54.33 µg | 12 hour urine Phe (Fig 2b) (50 mg/kg single oral dose): 9.69 µg and 12.9 µg and 44.78 µg and 18.25 µg and 46.82 µg and 10.07 µg | 12 hour urine Pro (Fig 2b) (50 mg/kg single oral dose): 8.47 µg and 4.8 µg and 12.9 µg and 9.81 µg and 24.06 µg and 10.26 µg | 12 hour urine Ser (Fig 2b) (50 mg/kg single oral dose): 30.76 µg and 12.92 µg and 98.91 µg and 47.01 µg and 97.58 µg and 29.03 µg | 12 hour urine Thr (Fig 2b) (50 mg/kg single oral dose): 158.71 µg and 83.75 µg and 358.72 µg and 229.83 µg and 330.77 µg and 183.12 µg | 12 hour urine Trp (Fig 2b) (50 mg/kg single oral dose): 7.91 µg and 4.53 µg and 17.51 µg and 12.59 µg and 19.36 µg and 8.39 µg | 12 hour urine Tyr (Fig 2b) (50 mg/kg single oral dose): 86.45 µg and 42.23 µg and 289.76 µg and 150.67 µg and 234.77 µg and 101.34 µg | 12 hour urine Arg (Fig 2b) (100 mg/kg single oral dose): 84.18 µg and 60.05 µg and 104.07 µg and 105.27 µg and 46.38 µg and 44.86 µg | 12 hour urine Gln (Fig 2b) (100 mg/kg single oral dose): 3618.3 µg and 3716.4 µg and 5677.3 µg and 3847.03 µg and 3083.95 µg and 2876.64 µg | 12 hour urine Glu (Fig 2b) (100 mg/kg single oral dose): 46.32 µg and 46.97 µg and 58.94 µg and 50.51 µg and 40.88 µg and 28.49 µg | 12 hour urine His (Fig 2b) (100 mg/kg single oral dose): 295.94 µg and 255.87 µg and 436.69 µg and 286 µg and 268.58 µg and 216 µg | 12 hour urine Lys (Fig 2b) (100 mg/kg single oral dose): 113.28 µg and 69.96 µg and 170.84 µg and 119.16 µg and 64.12 µg and 61.63 µg | 12 hour urine Met (Fig 2b) (100 mg/kg single oral dose): 69.6 µg and 61.3 µg and 109.16 µg and 65.46 µg and 59.17 µg and 56.84 µg | 12 hour urine Phe (Fig 2b) (100 mg/kg single oral dose): 57.79 µg and 56.42 µg and 118.09 µg and 57.72 µg and 36.93 µg and 35.59 µg | 12 hour urine Pro (Fig 2b) (100 mg/kg single oral dose): 8.92 µg and 10.04 µg and 30.88 µg and 13.13 µg and 10.09 µg and 9.04 µg | 12 hour urine Ser (Fig 2b) (100 mg/kg single oral dose): 108.24 µg and 109.95 µg and 223.3 µg and 89.79 µg and 97.93 µg and 80.73 µg | 12 hour urine Thr (Fig 2b) (100 mg/kg single oral dose): 506.96 µg and 408.61 µg and 713.8 µg and 526.01 µg and 450.28 µg and 363.04 µg | 12 hour urine Trp (Fig 2b) (100 mg/kg single oral dose): 23.65 µg and 18.61 µg and 32.89 µg and 21.7 µg and 20.33 µg and 13.52 µg | 12 hour urine Tyr (Fig 2b) (100 mg/kg single oral dose): 347.53 µg and 292.84 µg and 493.76 µg and 286.11 µg and 269.6 µg and 215.7 µg | 12 hour urine Arg (Fig 2b) (200 mg/kg single oral dose): 57.75 µg and 78.23 µg and 75.91 µg and 43.73 µg and 83.72 µg and 75.77 µg | 12 hour urine Gln (Fig 2b) (200 mg/kg single oral dose): 4199.73 µg and 4322.77 µg and 4076.82 µg and 4061.16 µg and 5861.18 µg and 4643.5 µg | 12 hour urine Glu (Fig 2b) (200 mg/kg single oral dose): 38.45 µg and 57.79 µg and 49.69 µg and 35.38 µg and 50.26 µg and 67.43 µg | 12 hour urine His (Fig 2b) (200 mg/kg single oral dose): 416.82 µg and 349.23 µg and 335.84 µg and 309.72 µg and 451.38 µg and 370.2 µg | 12 hour urine Lys (Fig 2b) (200 mg/kg single oral dose): 104.5 µg and 123.16 µg and 131.26 µg and 79.18 µg and 151.5 µg and 70.63 µg | 12 hour urine Met (Fig 2b) (200 mg/kg single oral dose): 123.47 µg and 86.31 µg and 49.16 µg and 59.08 µg and 101.09 µg and 139.58 µg | 12 hour urine Phe (Fig 2b) (200 mg/kg single oral dose): 133.44 µg and 84.26 µg and 51.41 µg and 40.35 µg and 175.28 µg and 83.35 µg | 12 hour urine Pro (Fig 2b) (200 mg/kg single oral dose): 13.11 µg and 14.35 µg and 18.33 µg and 8.21 µg and 20.58 µg and 15.61 µg | 12 hour urine Ser (Fig 2b) (200 mg/kg single oral dose): 170.69 µg and 159.37 µg and 110.1 µg and 92.34 µg and 194.17 µg and 159.84 µg | 12 hour urine Thr (Fig 2b) (200 mg/kg single oral dose): 631.21 µg and 617.4 µg and 618.83 µg and 576.45 µg and 832.11 µg and 699.79 µg | 12 hour urine Trp (Fig 2b) (200 mg/kg single oral dose): 40.01 µg and 30.26 µg and 27.35 µg and 18.62 µg and 33.13 µg and 31.85 µg | 12 hour urine Tyr (Fig 2b) (200 mg/kg single oral dose): 480.66 µg and 434.44 µg and 355.04 µg and 315.96 µg and 607.88 µg and 491.56 µg | 12 hour urine Arg (Fig 2b) (250 mg/kg single oral dose): 80.65 µg and 55.84 µg and 88.5 µg and 63.14 µg and 86.48 µg and 72.88 µg | 12 hour urine Gln (Fig 2b) (250 mg/kg single oral dose): 7107.31 µg and 3727.75 µg and 5603.56 µg and 4267.69 µg and 6411.47 µg and 5312.07 µg | 12 hour urine Glu (Fig 2b) (250 mg/kg single oral dose): 72.56 µg and 44.09 µg and 57.4 µg and 37.58 µg and 54.56 µg and 45.85 µg | 12 hour urine His (Fig 2b) (250 mg/kg single oral dose): 551.64 µg and 312.28 µg and 484.93 µg and 357.16 µg and 531.6 µg and 380.26 µg | 12 hour urine Lys (Fig 2b) (250 mg/kg single oral dose): 195.46 µg and 113.58 µg and 174.58 µg and 158.8 µg and 185.91 µg and 135.3 µg | 12 hour urine Met (Fig 2b) (250 mg/kg single oral dose): 187.74 µg and 68.61 µg and 113.61 µg and 89.08 µg and 102.86 µg and 165.83 µg | 12 hour urine Phe (Fig 2b) (250 mg/kg single oral dose): 183.47 µg and 73.49 µg and 113.19 µg and 97.89 µg and 98.25 µg and 112.7 µg | 12 hour urine Pro (Fig 2b) (250 mg/kg single oral dose): 23.91 µg and 11.83 µg and 17.19 µg and 13.18 µg and 15.23 µg and 18.44 µg | 12 hour urine Ser (Fig 2b) (250 mg/kg single oral dose): 292.3 µg and 114.91 µg and 195.78 µg and 144.05 µg and 202.42 µg and 201.61 µg | 12 hour urine Thr (Fig 2b) (250 mg/kg single oral dose): 952.09 µg and 536.61 µg and 931.14 µg and 639.81 µg and 964.07 µg and 684.47 µg | 12 hour urine Trp (Fig 2b) (250 mg/kg single oral dose): 51.77 µg and 27.86 µg and 38.14 µg and 35.4 µg and 37.19 µg and 32.26 µg | 12 hour urine Tyr (Fig 2b) (250 mg/kg single oral dose): 668.76 µg and 364.7 µg and 555.89 µg and 445.94 µg and 662.56 µg and 523.46 µg | increase in urinary Gln excretion vs vehicle (250 mg/kg, 12 h urine): 84 fold | increase in urinary His excretion vs vehicle (250 mg/kg, 12 h urine): 32 fold | increase in urinary Thr excretion vs vehicle (250 mg/kg, 12 h urine): 29 fold | urinary Gln excretion, mean ± SD (250 mg/kg, 12 h urine): 5,405 ± 1270 μg | urinary His excretion, mean ± SD (250 mg/kg, 12 h urine): 436 ± 100 µg | urinary Thr excretion, mean ± SD (250 mg/kg, 12 h urine): 785 ± 187 µg | urinary Pro excretion, mean ± SD (250 mg/kg, 12 h urine, effect negligible): 17 ± 4 µg | urine Gln excretion [1]: 1587.77 and 1811.58 and 1136.33 and 1371.1 and 1542.95 and 797.75 | urine Phe excretion [1]: 31.41 and 35.2 and 15.95 and 12.69 and 89.66 and 34.45 | glutamine excreted in urine, mean ± SD [2]: 1,375 ± 362 μg | urinary excretion of Phe, mean ± SD [2]: 37 ± 28 µg
